Experiments:
[1] = system: Salmonella enterica (ATCC 13311); conditions: broth cultures, to a concentration of 100 mM, single amino acid
[2] = system: Salmonella typhimurium ATCC 13311; experiment: Growth in inoculated milk at 12° C., plate count; type: cell-based; conditions: non-fat milk; for CFU/ml, day 0: 0 days; for CFU/ml, day 2: 2 days; for CFU/ml, day 4: 4 days; for CFU/ml, day 6: 6 days
Experimental: Stock cultures of Salmonella typhimurium ATCC 13311 and Escherichia coli O157:H7 ATCC 700728 which were used to inoculate liquid cultures were routinely kept on agar plates containing brain heart infusion (Oxoid CM225, Basingstoke, United Kingdom) fortified with 1.5% agar. […] Just prior to the inoculation of the foods the cultures were diluted with a solution containing 0.1% peptone and 0.85% NaCl.
Sterile non-fat milk was obtained from a local supermarket. Appropriate quantities of amino acids were added.
Milk was cooled to 10° C. and subsequently inoculated with an appropriately diluted culture of Salmonella typhimurium. Inoculated milk samples were incubated at 12° C.
The microbial analysis of the food samples was done as follows: A sealing bag was opened and to this were added 2 times the net weight of sterile dilution fluid ([…] and 0.1% (w/v) bacteriological peptone). Samples were homogenized for 1 min in a Stomacher 400 lab blender (Seward Medical, London, England) and 50 μl of the homogenate were plated on a suitable agar medium using an Eddyjet type 1.23 spiral plater (IUL Instruments, Barcelona, Spain). Escherichia coli 0157:H7 and Salmonella typhimurium were plated on VRBG agar (Oxoid, CM0485, Basingstoke, United Kingdom). Plates were incubated for 24 hours at 30° C. and then counted.
The effect of single additions of glycine, DL-alanine and a mixture of glycine (0.67%) and DL-alanine (0.8%) on the growth of Salmonella typhimurium in milk at 12° C. is given in Table I: […]

Row | SMILES | effect on the growth rate of Salmonella typhimurium [1] | CFU/ml, day 0 [2] | CFU/ml, day 2 [2] | CFU/ml, day 4 [2] | CFU/ml, day 6 [2]
1 | NCC(=O)O [glycine] | little or no effect | 5 · 10^3 CFU/ml | 5 · 10^4 CFU/ml | 1 · 10^5 CFU/ml | 8 · 10^4 CFU/ml
2 | CC(N)C(=O)O (racemic) [DL-alanine] | little or no effect | 5 · 10^3 CFU/ml | 5 · 10^4 CFU/ml | 4 · 10^5 CFU/ml | 1 · 10^5 CFU/ml

Source: patent US20070237756A1, “Antimicrobial preparations” (PURAC BIOCHEM B.V., priority 2006, published 2007)
